{"source": "patent US9949979B2", "about": "“Use of inhibitors of the activity or function of PI3K” (NOVARTIS AG, priority 2011, dated 2018)", "system": "isolated human pDCs", "test": "P. falciparum nuclear extract-induced IFNα production in human pDCs", "assay_type": "cell-based", "conditions": "for IFNα level: nuclear extract", "procedure": "Human PBMCs were prepared using Buffy Coats as source material from healthy donations (approx. 50 ml obtained from Blutspendezentrum SRK Basel) and processed as indicated above. Fresh PBMCs were resuspended and diluted in RoboSep™ buffer (PBS containing 2% v/v FBS, 1 mM EDTA (Gibco #15575-038) to obtain a final concentration of 50×10^6 PBMCs/ml. Human pDCs (negative selection) were isolated using plasmacytoid DC Enrichment kit (Stemcell, #19062) using an automation RobSep™ station as described according to manufacturer protocols. Typical pDC yields were approx. 0.1% of total PBMCs and with a purity>90%. Isolated pDCs were diluted to 4×10^5 cells/ml and seeded in 384-well plates (#353962; Becton Dickinson AG) to give a final volume of 25 μl (i.e. 1×10^4 cells/well). For stimulation using malaria nuclear extact (see below), pDCs were seeded at a final concentration of 5×10^4 cells/well.\nThe preparation of the nuclear extract of plasmodium falciparum was performed according to Gowda et al [Gowda et al. “The Nucleosome (Histone-DNA Complex) Is the TLR9-Specific Immunostimulatory Component of Plasmodium falciparum That Activates DCs”, PLoS ONE 2011]. In brief, Plasmodium falciparum 3D7 parasites were cultured in human red blood cell at 2% hematocrit. When the parasite was at late trophozoite and schizont stages, the infected red blood cells (IRBCs) were harvested by centrifugation and the pellets were re-suspended in 20 volumes of 0.1% saponin (m/v) in PBS, pH 7.2. The re-suspension was incubated on ice for 10 minutes and centrifuged at 2,500 g at 4° C. for 15 min. The pellet was re-suspended in the above solution, incubated on ice for 10 min and centrifuged at 2,500 g at 4° C. for 15 min. The parasite pellet thus obtained was washed 3 times with cold PBS, pH 7.2, by centrifugation. Each time 35 ml of cold PBS was used. The pellet obtained after the last centrifugation was suspended in 10 volumes of lysis buffer (20 mM HEPES, pH 7.5, 10 mM KCl, 1 mM EDTA, 1 mM dithiothreitol, 1 mM phenylmethylsulfonyl fluoride (PMSF) and 1% Triton X-100) and incubated on ice for 5 min. The suspension was centrifuged at 5,000 g at 4° C. for 10 min, and nuclear material was washed three times with the lysis buffer to remove membrane components. The nuclear material was re-suspended in PBS, pH 7.2. Insoluble material was subsequently solubilized by using a water-bath sonicator.\nCompounds were pre-diluted in 100% v/v DMSO (#41640-100 mL; Sigma-Aldrich), followed by transfer in Media (to achieve a final DMSO concentration of 0.25%). Cells were treated with appropriate compound dilution (5 μl) or vehicle control (5 μl) and incubated for 30 min at 37° C. in a humidified incubator in air with 5% (v/v) CO2. Cells were stimulated with CpG2216 (0.3 μM; #tlrl-hodna; Invivogen), malaria nuclear extract (2.5 μg/ml; see above for preparation) or vehicle control (10 μl/well) and incubated for 20 h. Plates were briefly centrifuged (200×g for 2 min at 22° C.) and supernatant samples (30 μl) removed for quantification of IFNα levels.\nFor quantification of IFNalpha the human interferon AlphaLISA Kit (#AL264F) from PerkinElmer was used. An antibody mix containing anti-IFNα acceptor beads (5 μg/ml final) and biotinylated antibody anti-IFNα(0.5 nM final) is prepared fresh and dispensed (5 μl) into 384-well Optiplates™ (#6007299; PerkinElmer). Dilution of known IFNα standards (human IFNα B (2b)) were prepared and together with cell supernatants (5 μl) were added to plates above. Plates were briefly centrifuged (pulse at 200 g), covered with adhesive sealing film, vortexed and incubated 1 h at room temperature in the dark. Streptavidin-coated donor beads (20 μg/ml final) was prepared and added to each well (5 μl) in a dark lit area (light sensitive mix). Plates were incubated 30 min at room temperature (Plates must not be centrifuged or covered). […]", "data": [{"molecule": "CCC(=O)N1CC[C@H](Nc2ncnc3c2CN(c2cnc(OC)c(C(F)(F)F)c2)CC3)C1", "note": "[Example 67, 1-{(S)-3-[6-(6-Methoxy-5-trifluoromethyl-pyridin-3-yl)-5,6,7,8-tetrahydro-pyrido[4,3-d]pyrimidin-4-ylamino]-pyrrolidin-1-yl}-propan-1-one]", "values": [{"measurement": "inhibition at 0.01 µM", "setting": "compound 0.01 μM, read-out: % inh. of IFNα by nuclear extract", "value": 25, "unit": "%"}, {"measurement": "inhibition at 0.1 µM", "setting": "compound 0.1 μM, read-out: % inh. of IFNα by nuclear extract", "value": 64, "unit": "%"}, {"measurement": "inhibition at 1 µM", "setting": "compound 1 μM, read-out: % inh. of IFNα by nuclear extract", "value": 77, "unit": "%"}, {"measurement": "IFNα level", "setting": "compound 0.01 μM", "value": 4084, "unit": "pg/mL"}, {"measurement": "IFNα level", "setting": "compound 0.1 μM", "value": 2110, "unit": "pg/mL"}, {"measurement": "IFNα level", "setting": "compound 1 μM", "value": 1483, "unit": "pg/mL"}]}]}
